Source: ChEMBL document CHEMBL1201862, “PubChem BioAssay data set” (2004)
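Grown in 96-well plates, cells were treated for 48 hours with each compound at five concentrations. Insufficient inhibition: endpoint recorded as highest concentration tested. GI50 is the concentration that inhibits growth by half.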 Active and inactive are the calls of the source. No stated cut-off is given here; in the data, active = GI50 up to about 1.1 µM and inactive = higher.

Assays:
Assay in all cases: NCI-60 cell line screen, 48 h
HCT-15 = system: HCT-15
CAKI-1 = system: CAKI-1
BT-549 = system: BT-549
HOP-92 = system: HOP-92
SK-MEL-2 = system: SK-MEL-2
A549 = system: A549
PC-3 = system: PC-3
RXF 393 = system: RXF 393
NCI-H23 = system: NCI-H23
DU-145 = system: DU-145
MDA-MB-435 = system: MDA-MB-435
LOX IMVI = system: LOX IMVI
NCI-H460 = system: NCI-H460
K562 = system: K562
Hs-578T = system: Hs-578T
NCI-H226 = system: NCI-H226
UACC-62 = system: UACC-62
SF-268 = system: SF-268
SF-539 = system: SF-539

Row | SMILES | GI50 (HCT-15) [µM] | GI50 (CAKI-1) | GI50 (BT-549) | GI50 (HOP-92) | GI50 (SK-MEL-2) | GI50 (A549) | GI50 (PC-3) | GI50 (RXF 393) | GI50 (NCI-H23) | GI50 (DU-145) | GI50 (MDA-MB-435) | GI50 (LOX IMVI) | GI50 (NCI-H460) | GI50 (K562) | GI50 (Hs-578T) | GI50 (NCI-H226) | GI50 (UACC-62) | GI50 (SF-268) | GI50 (SF-539)
1 | CN1C/C(=C\c2cccs2)C2=NC(=S)NC(c3cccs3)C2C1 (centres undefined) | 77.6 | > 100 µM (inactive) | 46.1 µM (inactive) | 33.6 µM (inactive) | > 100 µM (inactive) | 50.7 µM (inactive) | > 100 µM (inactive) | 88.7 µM (inactive) | 77.6 µM (inactive) | > 100 µM (inactive) | 43.9 µM (inactive) | 67.9 µM (inactive) | 50.6 µM (inactive) | 44.7 µM (inactive) | > 100 µM (inactive) | > 100 µM (inactive) | 81.1 µM (inactive) | 61.4 µM (inactive) | –
2 | Cc1ccc(S(=O)(=O)NC(=O)NS(=O)(=O)O)cc1 | > 100 | – | > 100 µM (inactive) | > 100 µM (inactive) | > 100 µM (inactive) | > 100 µM (inactive) | > 100 µM (inactive) | > 100 µM (inactive) | > 100 µM (inactive) | > 100 µM (inactive) | – | > 100 µM (inactive) | > 100 µM (inactive) | > 100 µM (inactive) | > 100 µM (inactive) | – | > 100 µM (inactive) | > 100 µM (inactive) | > 100 µM (inactive)
3 | CC(=O)OC1O[C@@H](C(C)(C)O)CC[C@@H]1[C@H]1CC[C@@]2(C)C3=C(CC[C@]12C)[C@@]1(C)C[C@@H](OC(=O)CC(C)(O)CC(=O)O)[C@H](OC(C)=O)C(C)(C)C1CC3 (some centres undefined) | 22.4 | 15.8 µM (inactive) | 15.8 µM (inactive) | 16.7 µM (inactive) | 16.4 µM (inactive) | 17.2 µM (inactive) | 17 µM (inactive) | – | 21.2 µM (inactive) | 19.1 µM (inactive) | 16.8 µM (inactive) | 17.7 µM (inactive) | 18 µM (inactive) | 31.3 µM (inactive) | 19.5 µM (inactive) | 21.7 µM (inactive) | 27.7 µM (inactive) | – | –
4 | CN(C)CCNC(=O)c1cccc2c1Oc1cccc([N+](=O)[O-])c1O2 | 33.8 | 18.4 µM (inactive) | 13.3 µM (inactive) | – | 23.5 µM (inactive) | 16 µM (inactive) | 15.4 µM (inactive) | – | 24.7 µM (inactive) | 17.7 µM (inactive) | 16.5 µM (inactive) | – | 17.3 µM (inactive) | 20 µM (inactive) | 18.4 µM (inactive) | 12.7 µM (inactive) | 18.1 µM (inactive) | 21.2 µM (inactive) | 18.2 µM (inactive)
5 | COC1OC(CBr)C(OC(c2ccccc2)(c2ccccc2)c2ccccc2)C(OC(c2ccccc2)(c2ccccc2)c2ccccc2)C1OC(c1ccccc1)(c1ccccc1)c1ccccc1 (centres undefined) | > 100 | > 100 µM (inactive) | 56.9 µM (inactive) | 17.1 µM (inactive) | – | 38.9 µM (inactive) | – | 33.4 µM (inactive) | 87.3 µM (inactive) | 76.2 µM (inactive) | > 100 µM (inactive) | > 100 µM (inactive) | 46.1 µM (inactive) | > 100 µM (inactive) | 34.9 µM (inactive) | 33.4 µM (inactive) | > 100 µM (inactive) | 63.5 µM (inactive) | 23.1 µM (inactive)
6 | CN(C)CCCN1c2ccccc2CCc2cccc([N+](=O)[O-])c21 | 15.6 | 20 µM (inactive) | 25.9 µM (inactive) | 14.4 µM (inactive) | 26.5 µM (inactive) | 37.3 µM (inactive) | 19.8 µM (inactive) | – | 34.4 µM (inactive) | 17.4 µM (inactive) | 16.7 µM (inactive) | 16.6 µM (inactive) | 18.2 µM (inactive) | 15.1 µM (inactive) | 23.3 µM (inactive) | 22.6 µM (inactive) | 18.5 µM (inactive) | 23.5 µM (inactive) | 17.7 µM (inactive)
7 | CN(C)CCC(C(=O)C(C)(C)C)c1ccccn1 (centres undefined) | > 100 | > 100 µM (inactive) | > 100 µM (inactive) | > 100 µM (inactive) | > 100 µM (inactive) | > 100 µM (inactive) | > 100 µM (inactive) | > 100 µM (inactive) | > 100 µM (inactive) | > 100 µM (inactive) | > 100 µM (inactive) | > 100 µM (inactive) | > 100 µM (inactive) | > 100 µM (inactive) | > 100 µM (inactive) | > 100 µM (inactive) | > 100 µM (inactive) | > 100 µM (inactive) | –
8 | NC1OC(COC(=O)c2ccccc2)C(O)C(OC(=O)c2ccccc2)C1OC(=O)c1ccccc1 (centres undefined) | 32.7 | – | 20.7 µM (inactive) | 35.2 µM (inactive) | 29.9 µM (inactive) | 19.1 µM (inactive) | 19.7 µM (inactive) | 16.3 µM (inactive) | 25.4 µM (inactive) | 40.1 µM (inactive) | 21.7 µM (inactive) | 14.4 µM (inactive) | 11.4 µM (inactive) | – | 15.1 µM (inactive) | 20.8 µM (inactive) | 14.1 µM (inactive) | 22.6 µM (inactive) | –
9 | c1ccc(CNCCCCNCCCNCc2ccccc2)cc1 | 19 | 13.6 µM (inactive) | 16.3 µM (inactive) | 11.8 µM (inactive) | 31.6 µM (inactive) | 17.4 µM (inactive) | 13.6 µM (inactive) | 16.4 µM (inactive) | 22 µM (inactive) | 23.6 µM (inactive) | 16.4 µM (inactive) | 17.7 µM (inactive) | 15.3 µM (inactive) | 18 µM (inactive) | 14 µM (inactive) | 20.2 µM (inactive) | 16.6 µM (inactive) | 18.8 µM (inactive) | –
10 | COc1cc(N2C(=O)C(=O)C3(CCCCC3)C2=O)cc(OC)c1OC | > 100 | > 100 µM (inactive) | > 100 µM (inactive) | – | > 100 µM (inactive) | > 100 µM (inactive) | > 100 µM (inactive) | > 100 µM (inactive) | > 100 µM (inactive) | > 100 µM (inactive) | > 100 µM (inactive) | > 100 µM (inactive) | – | > 100 µM (inactive) | – | > 100 µM (inactive) | > 100 µM (inactive) | > 100 µM (inactive) | > 100 µM (inactive)
11 | COC(=O)c1c(-c2ccc(Cl)cc2)cc2c3ccccc3n(C)c2c1C(=O)OC | > 100 | > 100 µM (inactive) | > 100 µM (inactive) | > 100 µM (inactive) | > 100 µM (inactive) | > 100 µM (inactive) | > 100 µM (inactive) | – | > 100 µM (inactive) | > 100 µM (inactive) | > 100 µM (inactive) | > 100 µM (inactive) | 49.8 µM (inactive) | 22.8 µM (inactive) | > 100 µM (inactive) | > 100 µM (inactive) | > 100 µM (inactive) | > 100 µM (inactive) | > 100 µM (inactive)
12 | Cc1ccc(-n2cc([Si](C)(C)C)nn2)s1 | > 100 | > 100 µM (inactive) | > 100 µM (inactive) | > 100 µM (inactive) | > 100 µM (inactive) | > 100 µM (inactive) | 97.5 µM (inactive) | – | 68.4 µM (inactive) | > 100 µM (inactive) | > 100 µM (inactive) | > 100 µM (inactive) | > 100 µM (inactive) | 45.1 µM (inactive) | > 100 µM (inactive) | > 100 µM (inactive) | > 100 µM (inactive) | > 100 µM (inactive) | > 100 µM (inactive)
13 | CCNC(=O)Cc1nc2c(N)ncnc2n1C1OC(CO)C(O)C1O (centres undefined) | > 100 | > 100 µM (inactive) | > 100 µM (inactive) | > 100 µM (inactive) | 48.6 µM (inactive) | > 100 µM (inactive) | > 100 µM (inactive) | – | > 100 µM (inactive) | > 100 µM (inactive) | > 100 µM (inactive) | > 100 µM (inactive) | > 100 µM (inactive) | > 100 µM (inactive) | > 100 µM (inactive) | > 100 µM (inactive) | > 100 µM (inactive) | > 100 µM (inactive) | > 100 µM (inactive)
14 | CCN(CCC#N)C(=O)Nc1ccccc1 | > 100 | > 100 µM (inactive) | > 100 µM (inactive) | > 100 µM (inactive) | > 100 µM (inactive) | > 100 µM (inactive) | > 100 µM (inactive) | > 100 µM (inactive) | > 100 µM (inactive) | > 100 µM (inactive) | > 100 µM (inactive) | > 100 µM (inactive) | > 100 µM (inactive) | > 100 µM (inactive) | – | > 100 µM (inactive) | > 100 µM (inactive) | – | > 100 µM (inactive)
15 | O=C(Nc1c(Cl)cc([N+](=O)[O-])cc1Cl)C(=O)C1C(=O)NC(=S)NC1=O | > 100 | > 100 µM (inactive) | > 100 µM (inactive) | > 100 µM (inactive) | > 100 µM (inactive) | > 100 µM (inactive) | > 100 µM (inactive) | > 100 µM (inactive) | > 100 µM (inactive) | – | > 100 µM (inactive) | > 100 µM (inactive) | > 100 µM (inactive) | > 100 µM (inactive) | > 100 µM (inactive) | > 100 µM (inactive) | > 100 µM (inactive) | > 100 µM (inactive) | > 100 µM (inactive)
16 | CC(=O)Oc1ccc(C)c2c1[C@H]1CC[C@]3(C)[C@@H](OC(C)=O)CC[C@H]3[C@@H]1CC2 | 17.8 | – | 17.5 µM (inactive) | 16.9 µM (inactive) | – | 20.5 µM (inactive) | – | 19.1 µM (inactive) | 16.8 µM (inactive) | 26.9 µM (inactive) | 17.9 µM (inactive) | 17 µM (inactive) | 20 µM (inactive) | 23.4 µM (inactive) | 23 µM (inactive) | 21.8 µM (inactive) | 19.9 µM (inactive) | 26.7 µM (inactive) | 19.6 µM (inactive)
